{
  "source": "patent US10912302B2",
  "about": "“Glyphosate salt herbicidal composition” (Monsanto Technology LLC, priority 2004, dated 2021)",
  "origin": "cited, not measured here",
  "details": "25° C.",
  "data": [
    {"smiles": "O=C(O)CNCP(=O)(O)O", "note": "[Glyphosate, glyphosate]", "values": [
      {"measurement": "solubility in water", "value": 1.16, "unit": "% by weight"}
    ]}
  ]
}
